Where two headings read alike, the source gives them in different places.
How the values were obtained:
[1] = BALB/c ByJ Rj, in vivo
IL6 signalling in hWB = test: hWB assay, IL6; type: cell-based, human; settings: human whole blood; read-out: hWB assay: IC50 IL6
CYP3A4 = target: T1, CYP3A4 (Homo sapiens, UniProt P08684); test: CYP3A inhibition in human liver microsomes; type: in vitro ADME
T1 construct: assessed in Human pooled liver microsomes of mixed gender; from tissue; host or cells: human pooled liver microsomes

[2] = In vivo pharmacokinetic analysis in rat, iv; parameters: species or system male Wistar Han rat; settings: iv 1 mg/kg; for clearance / Vd / half-life: male, Wistar Han, rat, whole blood; for clearance: blood, read-out: iv PK rat: Cl; for Vd: read-out: iv PK rat: Vd; for half-life: read-out: iv PK rat: t½ (converted)
Protocol: One male Wistar Han rat. Compound was administered intravenously to fed animal at a target dose of 1 mg/kg, dose volume: 2 mL/kg, in DMSO/hydroxypropyl-beta-cyclodextrin 20% in phosphate buffer 60 mM pH 7 (5:95). Blood samples were collected at various time points. Blood samples were then assayed using a method based upon protein precipitation with acetonitrile followed by LC/MS/MS analysis. Non-compartmental methods were used for pharmacokinetic analysis of blood concentration versus time data

[3] = Plasma exposure, dermis concentration and skin/plasma ratio compared to Ruxolitinib; settings: in vivo
[4] = test system: IL-6 induced p-STAT3Y705 in skin; test: In vivo pharmacodynamy model: IL-6 induced Phospho-STAT3, topical; parameters: species or system BALB/c ByJ Rj mice; settings: topical 1 mM, vehicle PG/EtOH 3/7
pKa = type: physicochemical
CYP2D6 = target: T2, CYP2D6 (Homo sapiens, UniProt P10635); test: CYP2D6 inhibition in human liver microsomes; type: in vitro ADME; settings: dextromethorphan
T2 construct: assessed in Human pooled liver microsomes of mixed gender; from tissue; host or cells: human pooled liver microsomes
Protocol: After 5 min at 37° C. incubations were started with NADPH and prolonged for 10 min. The test compound was tested up to 30 μM keeping the final concentration of organic solvent was below 0.5%. The final concentration of microsomes was 0.1 mg/ml to ensure linearity during the time of the incubation. The reaction was quenched by adding 3 volume of acetonitrile. After centrifugation the supernatant was analyzed by HPLC/MS/MS for the formation of des-methyldextromethorphane selectively produced by CYP2D6 and 1′hydroxymidazolam or 6β-hydroxytestosterone, selectively produced by CYP3A. IC50 was calculated with Graphpad Prism v.7 comparing the amount of metabolite produced in presence of the test compound with that produced in absence of test item.

[5] = Protein binding analysis (RED), mouse plasma; type: in vitro ADME, male balb-c mice; settings: 5 μM, RED 4 h
Protocol: (§1) The protein binding was assessed in plasma of Human, male balb-c mice, male Wistar Han rat, male Gottingen minipig by rapid equilibrium dialysis (RED) devices. After the plasma and buffer phosphate 50 mM pH7.4 were equilibrated at 37° C., the compound was added to plasma to reach a final concentration of 5 μM. An aliquot of plasma was withdrawn immediately. Equilibration under mild agitation was continued for 4 h. The plasma and buffer were sampled and samples were quenched with 4 volumes of acetonitrile and centrifuged. Supernatant was quantified in HPLC/MS/MS to calculate the recovery and the percentage of compound dissolved in the buffer (unbound) and bound to plasma proteins.

acetylcholinesterase (h) = target: T3, acetylcholinesterase (h) (Homo sapiens, UniProt P22303); test: CEREP Safety Screen-44: acetylcholinesterase (h); type: biochemical
T3 construct: CEREP
Protocol: An in vitro pharmacology assay was conducted to assess the capability of the compounds to interact with different pharmacological targets when tested at 10 μM in different binding and enzyme/uptake assays. The included targets are indicative of potential effects in major organs and drug-drug interactions.
Compound binding was calculated as a % inhibition of the binding of a radioactively labelled ligand specific for each target. […] Results showing an inhibition or stimulation higher than 50% are considered to represent significant effects of the test compounds.

Recombinant JAK1 = target: T4, Recombinant JAK1 (Homo sapiens, UniProt P23458); test: In vitro enzyme assay (Cisbio kinase assay), JAK1; type: biochemical; settings: ATP 300 μM; read-out: Enzymatic assay: IC50 JAK1
T4 construct: purchased Life Technologies PV4775

[6] = target: T5, hERG (Human Ether-a-go-go Related Gene) channel in CHO-K1 cells (Homo sapiens, UniProt Q12809); test: In vitro hERG channel, whole cell patch clamp; type: cell-based; settings: up to 30 μM
T5 construct: expressed in transfected cells; host or cells: CHO-K1
Protocol: Blockade of the delayed rectifier potassium current (IKr) encoded by hERG gene (human ether a go go-related gene) can lead to QT interval prolongation and is therefore investigated as part of the cardiac risk assessment. This channel is critical for the repolarisation of the cardiac membrane. The effect of the compounds on IKr was assessed by whole cell patch clamp in stably transfected CHO-K1 cells expressing hERG (Human Ether-a-go-go Related Gene) channel following superfusion at different concentrations up to 30 μM.

[7] = Protein binding analysis (RED), rat plasma; type: in vitro ADME, male Wistar Han rat; settings: 5 μM, RED 4 h
Protocol: as §1

[8] = Protein binding analysis (RED), human plasma; type: in vitro ADME; settings: 5 μM, RED 4 h
Protocol: as §1

[9] = Systemic level in PD/IL6 mouse topical dose response; settings: topical 10 mM, PG/Acetone/Transcutol
[10] = midazolam, read-out: IC50 CYP3A4 mid.
[11] = testosterone, read-out: IC50 CYP3A4 testo.

T1 sequence (P08684 2-503): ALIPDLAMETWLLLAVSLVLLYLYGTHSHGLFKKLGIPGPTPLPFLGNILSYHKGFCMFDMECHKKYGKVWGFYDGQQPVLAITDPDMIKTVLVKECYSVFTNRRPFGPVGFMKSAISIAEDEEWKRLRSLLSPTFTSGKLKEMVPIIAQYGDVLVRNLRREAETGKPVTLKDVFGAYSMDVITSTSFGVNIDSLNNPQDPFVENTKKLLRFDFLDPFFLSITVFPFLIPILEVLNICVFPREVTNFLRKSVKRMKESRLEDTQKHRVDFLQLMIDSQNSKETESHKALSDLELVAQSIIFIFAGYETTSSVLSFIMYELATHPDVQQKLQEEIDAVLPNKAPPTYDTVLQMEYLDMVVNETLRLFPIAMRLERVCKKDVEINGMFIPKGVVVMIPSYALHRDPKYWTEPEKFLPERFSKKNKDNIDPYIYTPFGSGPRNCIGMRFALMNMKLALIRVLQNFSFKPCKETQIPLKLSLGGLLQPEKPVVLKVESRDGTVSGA
T2 sequence (P10635 whole entry): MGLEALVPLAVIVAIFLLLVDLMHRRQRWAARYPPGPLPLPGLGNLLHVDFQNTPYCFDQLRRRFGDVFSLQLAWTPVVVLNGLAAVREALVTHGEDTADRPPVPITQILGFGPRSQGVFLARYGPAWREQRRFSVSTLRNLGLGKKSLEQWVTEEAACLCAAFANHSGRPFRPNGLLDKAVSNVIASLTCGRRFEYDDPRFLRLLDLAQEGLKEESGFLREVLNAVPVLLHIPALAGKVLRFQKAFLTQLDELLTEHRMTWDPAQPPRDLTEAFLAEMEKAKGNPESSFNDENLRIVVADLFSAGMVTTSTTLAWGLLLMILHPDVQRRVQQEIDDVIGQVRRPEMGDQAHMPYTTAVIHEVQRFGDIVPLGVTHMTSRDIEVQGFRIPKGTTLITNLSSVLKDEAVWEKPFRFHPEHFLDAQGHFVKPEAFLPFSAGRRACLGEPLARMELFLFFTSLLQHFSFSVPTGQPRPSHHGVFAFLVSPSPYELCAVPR
T4 sequence (P23458 whole entry): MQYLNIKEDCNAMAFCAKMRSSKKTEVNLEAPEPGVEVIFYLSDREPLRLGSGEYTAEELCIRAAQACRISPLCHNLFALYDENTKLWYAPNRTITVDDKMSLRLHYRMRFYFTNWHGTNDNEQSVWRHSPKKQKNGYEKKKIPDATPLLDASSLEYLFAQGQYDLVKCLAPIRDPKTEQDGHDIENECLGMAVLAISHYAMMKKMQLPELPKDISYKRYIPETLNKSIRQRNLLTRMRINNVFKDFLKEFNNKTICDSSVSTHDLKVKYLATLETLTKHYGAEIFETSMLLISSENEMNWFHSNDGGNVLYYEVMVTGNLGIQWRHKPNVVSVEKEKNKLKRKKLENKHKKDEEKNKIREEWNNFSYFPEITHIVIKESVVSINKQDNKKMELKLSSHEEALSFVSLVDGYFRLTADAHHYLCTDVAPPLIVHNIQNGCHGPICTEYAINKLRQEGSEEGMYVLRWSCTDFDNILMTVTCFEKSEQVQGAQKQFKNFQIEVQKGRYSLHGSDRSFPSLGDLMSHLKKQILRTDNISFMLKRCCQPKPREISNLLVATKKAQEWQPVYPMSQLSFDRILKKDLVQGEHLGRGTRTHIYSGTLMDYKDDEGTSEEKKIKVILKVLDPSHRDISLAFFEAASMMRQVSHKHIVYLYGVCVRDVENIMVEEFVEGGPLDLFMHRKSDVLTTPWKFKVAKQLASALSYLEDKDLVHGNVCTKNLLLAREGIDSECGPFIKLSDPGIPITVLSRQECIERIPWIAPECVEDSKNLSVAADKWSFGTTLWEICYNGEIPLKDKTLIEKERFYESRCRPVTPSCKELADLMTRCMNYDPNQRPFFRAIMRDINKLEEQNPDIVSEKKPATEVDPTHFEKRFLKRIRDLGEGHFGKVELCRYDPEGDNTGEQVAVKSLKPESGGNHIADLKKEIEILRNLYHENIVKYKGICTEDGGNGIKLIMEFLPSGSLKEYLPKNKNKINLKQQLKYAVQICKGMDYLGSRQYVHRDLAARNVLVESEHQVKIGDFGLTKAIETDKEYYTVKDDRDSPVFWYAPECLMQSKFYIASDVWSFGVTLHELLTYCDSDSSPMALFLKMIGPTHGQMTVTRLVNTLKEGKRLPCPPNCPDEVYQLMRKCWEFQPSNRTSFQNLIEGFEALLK
T5 sequence (Q12809 whole entry): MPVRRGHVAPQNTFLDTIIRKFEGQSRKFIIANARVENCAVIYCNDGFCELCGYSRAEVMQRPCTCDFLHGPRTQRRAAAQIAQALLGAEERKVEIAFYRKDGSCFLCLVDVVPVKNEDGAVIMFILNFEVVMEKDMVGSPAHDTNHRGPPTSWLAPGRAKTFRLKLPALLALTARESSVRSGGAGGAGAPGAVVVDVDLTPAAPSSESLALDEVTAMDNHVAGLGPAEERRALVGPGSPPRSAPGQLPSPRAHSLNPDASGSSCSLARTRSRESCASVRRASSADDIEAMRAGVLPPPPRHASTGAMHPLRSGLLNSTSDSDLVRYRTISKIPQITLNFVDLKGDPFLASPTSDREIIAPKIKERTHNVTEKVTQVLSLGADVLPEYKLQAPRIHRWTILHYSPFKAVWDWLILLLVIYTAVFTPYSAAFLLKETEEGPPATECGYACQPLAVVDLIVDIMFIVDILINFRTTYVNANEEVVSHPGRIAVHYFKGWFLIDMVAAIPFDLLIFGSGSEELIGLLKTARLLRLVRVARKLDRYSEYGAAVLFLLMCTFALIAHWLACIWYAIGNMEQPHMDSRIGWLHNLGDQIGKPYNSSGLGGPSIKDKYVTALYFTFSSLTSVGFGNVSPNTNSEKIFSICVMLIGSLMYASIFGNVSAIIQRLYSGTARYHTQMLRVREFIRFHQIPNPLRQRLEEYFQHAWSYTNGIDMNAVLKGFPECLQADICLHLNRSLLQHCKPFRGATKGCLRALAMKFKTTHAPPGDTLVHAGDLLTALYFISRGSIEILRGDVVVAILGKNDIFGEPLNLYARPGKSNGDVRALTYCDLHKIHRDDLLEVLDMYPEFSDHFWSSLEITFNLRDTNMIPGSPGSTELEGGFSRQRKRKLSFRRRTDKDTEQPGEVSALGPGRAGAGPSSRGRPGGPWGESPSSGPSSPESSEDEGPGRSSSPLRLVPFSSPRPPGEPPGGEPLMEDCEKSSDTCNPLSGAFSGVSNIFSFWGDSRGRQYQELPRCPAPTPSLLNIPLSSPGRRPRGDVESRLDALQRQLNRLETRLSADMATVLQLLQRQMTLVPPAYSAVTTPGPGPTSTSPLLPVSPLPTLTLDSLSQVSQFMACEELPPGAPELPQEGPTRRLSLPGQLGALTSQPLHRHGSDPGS
T3 sequence (P22303 32-614): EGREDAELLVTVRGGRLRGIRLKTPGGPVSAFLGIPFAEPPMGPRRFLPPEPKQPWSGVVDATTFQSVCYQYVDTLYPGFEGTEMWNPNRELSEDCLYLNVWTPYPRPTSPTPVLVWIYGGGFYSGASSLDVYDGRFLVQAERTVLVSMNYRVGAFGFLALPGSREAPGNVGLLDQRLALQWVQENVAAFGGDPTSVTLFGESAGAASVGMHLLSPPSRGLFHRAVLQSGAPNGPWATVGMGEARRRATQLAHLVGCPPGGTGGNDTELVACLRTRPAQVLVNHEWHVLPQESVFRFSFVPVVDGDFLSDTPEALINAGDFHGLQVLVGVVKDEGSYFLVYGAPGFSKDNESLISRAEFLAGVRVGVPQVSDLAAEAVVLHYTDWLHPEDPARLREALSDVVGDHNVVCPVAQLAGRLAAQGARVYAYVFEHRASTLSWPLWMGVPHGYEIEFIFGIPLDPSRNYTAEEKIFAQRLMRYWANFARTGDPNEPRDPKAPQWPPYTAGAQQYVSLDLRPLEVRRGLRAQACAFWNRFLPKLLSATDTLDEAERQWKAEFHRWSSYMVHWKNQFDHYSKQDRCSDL

Row | SMILES | IC50 (IL6 signalling in hWB) [µM] | IC50 (CYP3A4; [10]) [µM] | IC50 (CYP3A4; [11]) [µM] | iv PK rat: Cl (value in brackets, %) [2] [%] | clearance [2] [mL/min/kg] | Vd [2] [L/kg] | half-life [2] [min] | PD/IL6 mouse top @1 mM % inh vs vehicle [4] | IC50 (CYP2D6) [µM] | mFU [5] [%] | IC50 (Recombinant JAK1) [µM] | IC50 [6] [µM] | rFU [7] [%] | hFU [8] [%] | further results
1 | CC1(C)CCN(C(=O)C[C@H]2C[C@@H](Nc3c(C#N)cnc4[nH]ccc34)C2)CC1 [Compound A, 4-(((cis)-3-(2-(4,4-dimethylpiperidin-1-yl)-2-oxoethyl)cyclobutyl)amino)-1H-pyrrolo[2,3-b]pyridine-5-carbonitrile] | 1.3 | 3.6 | 1.5 | 46 | 36 | 1.4 | 32.4 | 66% | 25 | 5.2 | 0.003 | > 30 | 3.6 | 4.4 | PD/IL6 mouse top DR 0.01-10 mM: Systemic level @ 10 mM - 2 hrs [1]: 9.8 nM; dermis concentration, times higher compared to Ruxolitinib [3]: 2.4; plasma exposure, times lower compared to Ruxolitinib [3]: 2.9; skin/plasma ratio, times higher compared to Ruxolitinib [3]: 7; pKa (pKa): 3.7; Safety panel (Cerep): target with > 50% inh @ 10 microM (acetylcholinesterase (h)): acetylcholinesterase
2 | CC1CCN(C(=O)C[C@H]2C[C@@H](Nc3c(C#N)cnc4[nH]ccc34)C2)CC1 [Compound B, 4-(((cis)-3-(2-(4-Methylpiperidin-1-yl)-2-oxoethyl)cyclobutyl)amino)-1H-pyrrolo[2,3-b]pyridine-5-carbonitrile] | 6.9 | 9.4 | 5.6 | 46 | 36 | 0.8 | 15.6 | 81%/ND Tofa @ 10 mM | 25 | 5.1 | 0.004 | > 30 | 2.8 | 5.6 | PD/IL6 mouse top DR 0.01-10 mM: Systemic level @ 10 mM - 2 hrs [9]: 9.8 nM

From US12606559B2, “JAK inhibitor compounds, methods for synthesizing same and use thereof” (GALDERMA HOLDING SA, priority 2020, dated 2026)
